Two compounds from publication PMC12217463, “Functional and structural analyses of amino acid sequence variation in PDC β-lactamase reveal different mechanistic pathways toward cefiderocol resistance in Pseudomonas aeruginosa” (Antimicrobial Agents and Chemotherapy, 2025) can be followed below.

One test deals with PDC L293P (Pseudomonas aeruginosa, UniProt P24735, L320P). Kind of test: Steady-state kinetics of purified β-lactamase. The conditions noted are these: for Km / kcat: PDC L293P, 10 mM PBS, pH 7.4, room temperature; for Km: antibiotics: determined as Ki app with nitrocefin as reporter substrate; for kcat: direct hydrolysis at substrate concentration at least three times the Km; for Ratio for PDC L293P/PDC-1: ratio of kcat/Km (fold change in catalytic efficiency).

For test [1], the system named is PAO1 + blaPDC F121L + G220S. The test can be described thus: MIC, broth microdilution. The format is cell-based. The settings on record: Pseudomonas aeruginosa.
The target of the next test is PDC-1 (WT) (Pseudomonas aeruginosa, UniProt P24735). Kind of test: Steady-state kinetics of purified β-lactamase. The settings on record: for kcat: PDC-1 (WT), direct hydrolysis at substrate concentration at least three times the Km, 10 mM PBS, pH 7.4, room temperature; for Ratio: kcat/Km relative to PDC-1 (reference = 1).
The next test addresses PDC E219K (Pseudomonas aeruginosa, UniProt P24735, E247K). The test can be described thus: Steady-state kinetics of purified β-lactamase. The settings on record: for increase in kcat values: PDC E219K relative to PDC-1; for Km / kcat: PDC E219K, 10 mM PBS, pH 7.4, room temperature; for Km: antibiotics: determined as Ki app with nitrocefin as reporter substrate; for kcat: direct hydrolysis at substrate concentration at least three times the Km; for Ratio for PDC E219K/PDC-1: ratio of kcat/Km (fold change in catalytic efficiency).

The test system of another test is PAO1 + blaPDC E219G. Kind of test: MIC, broth microdilution. The format is cell-based. The conditions noted are these: Pseudomonas aeruginosa. From the text: (§1) We took advantage of a previously constructed and characterized laboratory collection of recombinant P. aeruginosa PAO1 isolates expressing different blaPDC variants, but specifically enriched for this work with additional variants, following the previously described methodology ([17]). […] The final collection comprised 40 recombinant isolates (20 in PAO1 and 20 in PAO ΔpiuC) producing the wild-type PDC-1 variant from PAO1 and 19 derivatives carrying specific amino acid substitutions previously associated with the development of resistance to ceftazidime/avibactam, ceftolozane/tazobactam, or cefiderocol: T70I, F121L, P153L, G156D, A200T, G202S, ΔG202-E219, G214R, P215L, P215S, ΔP215-G222, D217N, E219K, E219G, E219D, S226ins, L293P, F121L + E219K, and F121L + G222S.
(§2) The MICs of ceftazidime, ceftazidime/avibactam, ceftolozane/tazobactam, cefepime, and cefiderocol were determined in triplicate, for all isolates, by reference broth microdilution assays. Avibactam and tazobactam were fixed at 4 mg/L. All assays were performed using cation-adjusted Mueller-Hinton broth (CAMHB), except for cefiderocol, which was determined in all cases using iron-depleted CAMHB, prepared according to CLSI M100 guidelines ([40]). EUCAST v.15.0 clinical breakpoints and guidelines (http://www.eucast.org/clinical_breakpoints/) were used for reference purposes. Reference strains Escherichia coli ATCC 25922, Klebsiella pneumoniae ATCC 700603, and P. aeruginosa ATCC 27853 were used as controls.

Another test concerns PAO1 + blaPDC F121L. Kind of test: MIC, broth microdilution. In kind it is cell-based. The conditions noted are these: Pseudomonas aeruginosa.
Source text: as §1, §2

The subject of the next test is PAO1 + blaPDC P153L. The test can be described thus: MIC, broth microdilution. In kind it is cell-based. The settings on record: Pseudomonas aeruginosa.
Source text: as §1, §2

The subject of the next test is PAO1 + blaPDC A200T. Kind of test: MIC, broth microdilution. The format is cell-based. The settings on record: Pseudomonas aeruginosa.
Source text: as §1, §2

Another test relates to PAO1 + blaPDC D217N. The test can be described thus: MIC, broth microdilution. The format is cell-based. The settings on record: Pseudomonas aeruginosa.
Source text: as §1, §2

The subject of another test is PAO1. Kind of test: MIC, broth microdilution. The format is cell-based. The conditions noted are these: Pseudomonas aeruginosa; PAO1 wild type, no plasmid-borne PDC; avibactam and tazobactam fixed at 4 mg/L; FDC in iron-depleted CAMHB.
Source text: as §1, §2

In test [2] the test system is PAO1 + blaPDC F121L + E219K. The test can be described thus: MIC, broth microdilution. The format is cell-based. The conditions noted are these: Pseudomonas aeruginosa.
Source text: as §1, §2

In another test the test system is PAO1 + blaPDC P215L. The test can be described thus: MIC, broth microdilution. The settings on record: Pseudomonas aeruginosa. The format is cell-based.
Source text: as §1, §2

The next test relates to PAO1 + blaPDC E219K. Kind of test: MIC, broth microdilution. In kind it is cell-based. The conditions noted are these: Pseudomonas aeruginosa.
Source text: as §1, §2

Another test relates to PAO1 + blaPDC G214R. The test can be described thus: MIC, broth microdilution. The format is cell-based. The settings on record: Pseudomonas aeruginosa.
Source text: as §1, §2

The subject of another test is PAO1 + blaPDC G156D. Kind of test: MIC, broth microdilution. The format is cell-based. The conditions noted are these: Pseudomonas aeruginosa.
Source text: as §1, §2

A further test has as its system PAO1 + blaPDC E219D. Kind of test: MIC, broth microdilution. The settings on record: Pseudomonas aeruginosa. The format is cell-based.
Source text: as §1, §2

The next test concerns PAO1 + blaPDC G202S. The test can be described thus: MIC, broth microdilution. The settings on record: Pseudomonas aeruginosa. The format is cell-based.
Source text: as §1, §2

The subject of a further test is PAO1 + blaPDC ∆P215-G222. Kind of test: MIC, broth microdilution. In kind it is cell-based. The settings on record: Pseudomonas aeruginosa, avibactam and tazobactam fixed at 4 mg/L, FDC in iron-depleted CAMHB.
Source text: as §1, §2

The next test deals with PAO1 + blaPDC S226ins. Kind of test: MIC, broth microdilution. In kind it is cell-based. The conditions noted are these: Pseudomonas aeruginosa, avibactam and tazobactam fixed at 4 mg/L, FDC in iron-depleted CAMHB.
Source text: as §1, §2

Another test has as its system PAO1 + blaPDC T70I. The test can be described thus: MIC, broth microdilution. In kind it is cell-based. The conditions noted are these: Pseudomonas aeruginosa.
Source text: as §1, §2

In the next test the test system is PAO1 + blaPDC L293P. The test can be described thus: MIC, broth microdilution. The format is cell-based. The conditions noted are these: Pseudomonas aeruginosa.
Source text: as §1, §2

A further test relates to PAO1 + blaPDC-1 (WT). Kind of test: MIC, broth microdilution. In kind it is cell-based. The conditions noted are these: Pseudomonas aeruginosa, avibactam and tazobactam fixed at 4 mg/L, FDC in iron-depleted CAMHB.
Source text: as §1, §2

In another test the test system is PAO1 + blaPDC ∆G202-E219. Kind of test: MIC, broth microdilution. In kind it is cell-based. The settings on record: Pseudomonas aeruginosa, avibactam and tazobactam fixed at 4 mg/L, FDC in iron-depleted CAMHB.
Source text: as §1, §2

For a further test, the system named is PAO1 + blaPDC P215S. The test can be described thus: MIC, broth microdilution. The settings on record: Pseudomonas aeruginosa. The format is cell-based.
Source text: as §1, §2

Each structure is given as a SMILES string. In brackets after ≈: the same amount, converted by molar mass. A value given as a limit tells only on which side of the number the result lay.

For the compound `CC(C)(O/N=C(\C(=O)N[C@@H]1C(=O)N2C(C(=O)[O-])=C(C[n+]3ccccc3)CS[C@H]12)c1csc(N)n1)C(=O)O` [CAZ, ceftazidime], the Km at PDC L293P was 2.84 ± 0.31 µM; on PDC E219K, 292 ± 27.5 µM. In addition, the turnover number (kcat) on PDC L293P came out at 0.0110 ± 0.0003 s⁻¹; on PDC-1 (WT), 0.0082 s⁻¹; on PDC E219K (listed as Ceftazidime), 2.19 ± 0.17 s⁻¹; at PDC E219K (listed as ceftazidime), 2.19 s⁻¹. Moreover, the “Ratio for PDC L293P/PDC-1” value on PDC L293P worked out at 8.67. The MIC is 64 µg/mL (≈ 117 µM) in [1]; 16 µg/mL (≈ 29.3 µM) in the test with PAO1 + blaPDC E219G; 64 µg/mL (≈ 117 µM) with PAO1 + blaPDC F121L; 128 µg/mL (≈ 234 µM) in the test with PAO1 + blaPDC P153L; 64 µg/mL (≈ 117 µM) with PAO1 + blaPDC A200T; 64 µg/mL (≈ 117 µM) in the test with PAO1 + blaPDC D217N. Also, the MIC in the test with PAO1 was not above 1 µg/mL; in test [2] it was more than 256 µg/mL; in the test on PAO1 + blaPDC P215L, 64 µg/mL (≈ 117 µM); in the test on PAO1 + blaPDC E219K it was 256 µg/mL (≈ 468 µM); with PAO1 + blaPDC G214R, 128 µg/mL (≈ 234 µM); with PAO1 + blaPDC G156D, 64 µg/mL (≈ 117 µM). Moreover, the minimum inhibitory concentration (MIC) was determined as 64 µg/mL (≈ 117 µM) with PAO1 + blaPDC E219D; 64 µg/mL (≈ 117 µM) in the test on PAO1 + blaPDC G202S; 256 µg/mL in the test on PAO1 + blaPDC ∆P215-G222; 128 µg/mL in the test with PAO1 + blaPDC S226ins; 64 µg/mL (≈ 117 µM) in the test on PAO1 + blaPDC T70I; 64 µg/mL (≈ 117 µM) in the test on PAO1 + blaPDC L293P. Moreover, the MIC turned out to be 32 µg/mL with PAO1 + blaPDC-1 (WT), 64 µg/mL in the test with PAO1 + blaPDC ∆G202-E219 and 64 µg/mL (≈ 117 µM) with PAO1 + blaPDC P215S. In addition, the Ratio at PDC-1 (WT) was 1. The “increase in kcat values” on PDC E219K is recorded as “≈ 267 fold”. The results for the “Ratio for PDC E219K/PDC-1” value on PDC E219K (listed as Ceftazidime) and on PDC E219K (listed as ceftazidime) were 15.56 and “≈ 16”, respectively.

With `Cn1c(N)c(NC(=O)NCCN)c[n+]1CC1=C(C(=O)O)N2C(=O)[C@@H](NC(=O)/C(=N\OC(C)(C)C(=O)[O-])c3nsc(N)n3)[C@H]2SC1` [Ceftolozane, ceftolozane], at PDC L293P, the Michaelis-Menten constant (Km) was 108 ± 28.8 µM, the kcat is 0.051 ± 0.007 s⁻¹ and the “Ratio for PDC L293P/PDC-1” value stood at 3.69. At PDC-1 (WT), the kcat was 0.0715 s⁻¹ and the Ratio was determined as 1. For the same compound, at PDC E219K, the “increase in kcat values” was “≈ 58 fold”, the Michaelis constant (Km) worked out at 266 ± 43.5 µM, the kcat was 4.18 ± 0.19 s⁻¹ and the “Ratio for PDC E219K/PDC-1” value turned out to be 123.08. Further, at PDC E219K (listed as ceftolozane), the kcat came to 4.18 s⁻¹ and the “Ratio for PDC E219K/PDC-1” value is reported as “≈ 123”.
